Laboratory results published in patent publication US9260429B2, “Pyrido[3,4-B]indoles and methods of use” (Medivation Technologies, Inc., priority 2008, dated 2016).
Like-named read-outs stand apart in the source and are kept apart here.

Tests used:
[1] = biological target: T1, human recombinant adrenergic α1D receptor (Homo sapiens, UniProt P25100); experiment: Adrenergic α1D radioligand binding ([3H]Prozosin)
T1 construct: expressed in transfected cells; host or cells: HEK-293 cells
T1 sequence (P25100 1-572): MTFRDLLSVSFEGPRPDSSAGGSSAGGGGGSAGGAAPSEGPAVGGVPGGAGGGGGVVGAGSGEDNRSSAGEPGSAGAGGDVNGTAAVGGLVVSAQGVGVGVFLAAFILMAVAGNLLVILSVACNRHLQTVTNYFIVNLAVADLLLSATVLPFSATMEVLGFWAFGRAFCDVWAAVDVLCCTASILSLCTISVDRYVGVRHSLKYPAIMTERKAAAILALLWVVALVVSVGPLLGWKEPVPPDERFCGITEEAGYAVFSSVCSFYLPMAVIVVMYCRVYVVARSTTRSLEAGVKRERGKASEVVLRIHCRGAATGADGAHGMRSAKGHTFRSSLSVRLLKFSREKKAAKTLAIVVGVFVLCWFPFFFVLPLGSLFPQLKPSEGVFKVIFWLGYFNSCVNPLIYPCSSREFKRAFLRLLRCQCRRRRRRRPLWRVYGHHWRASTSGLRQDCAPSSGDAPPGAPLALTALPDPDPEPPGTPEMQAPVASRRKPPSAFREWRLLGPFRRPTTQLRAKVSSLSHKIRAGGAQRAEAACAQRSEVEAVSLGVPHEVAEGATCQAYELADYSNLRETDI
Protocol: To evaluate in radioligand binding assays the activity of compounds of the invention, human recombinant adrenergic a1D receptor expressed in human embryonic kidney (HEK-293) cells (Kenny, B. A. et al. Br. J. Pharmacol. 115(6):981, 1995) in a 50 mM Tris-HCl buffer, pH 7.4, was used. Compounds of invention were incubated with 0.6 nM [^3H]Prozosin for 60 minutes at 25° C. Non-specific binding was estimated in the presence of 10 μM phentolamine. Receptor proteins were filtered and washed, the filters were then counted to determine [^3H]Prozosin specifically bound. Compounds were screened at 1 μM or lower, using 1% DMSO as vehicle. Biochemical assay results are presented as the percent inhibition of specific binding in Table 4. Adrenergic a2A

[2] = biological target: T2, human recombinant adrenergic α2A receptor (Homo sapiens, UniProt P08913); experiment: Adrenergic α2A radioligand binding ([3H]MK-912)
T2 construct: expressed in transfected cells; host or cells: insect Sf9 cells
T2 sequence (P08913 1-465): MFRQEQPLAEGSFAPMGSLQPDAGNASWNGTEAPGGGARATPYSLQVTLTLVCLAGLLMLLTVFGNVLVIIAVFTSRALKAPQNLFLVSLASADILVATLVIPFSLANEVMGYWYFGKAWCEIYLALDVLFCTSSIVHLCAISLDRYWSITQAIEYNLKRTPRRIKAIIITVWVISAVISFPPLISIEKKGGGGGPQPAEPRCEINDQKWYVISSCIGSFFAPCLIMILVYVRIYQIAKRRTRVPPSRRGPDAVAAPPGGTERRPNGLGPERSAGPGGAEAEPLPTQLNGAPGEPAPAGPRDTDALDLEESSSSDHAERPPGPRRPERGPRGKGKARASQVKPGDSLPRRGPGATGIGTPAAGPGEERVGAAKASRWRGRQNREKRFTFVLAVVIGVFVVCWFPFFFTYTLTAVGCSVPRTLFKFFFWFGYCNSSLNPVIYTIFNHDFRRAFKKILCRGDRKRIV
Protocol: To evaluate in radioligand binding assays the activity of compounds of the invention, human recombinant adrenergic α2A receptor expressed in insect Sf9 cells (Uhlen S et al. J Pharmacol Exp Ther. 271:1558, 1994) in a modified Tris-HCl buffer (50 mM Tris-HCl, pH 7.4, 12.5 mM MgCl2, 2 mM EDTA) was used. Compounds of invention were incubated with 1 nM [^3H]MK-912 for 60 minutes at 25° C. MK912 is (2S-trans)-1,3,4,5′,6,6′,7,12b-octahydro-1′,3′-dimethyl-spiro[2H-benzofuro[2,3-a]quinolizine-2,4′(1′H)-pyrimidin]-2′(3′H)-one hydrochloride Non-specific binding was estimated in the presence of 10 μM WB-4101 (2-(2,6-Dimethoxyphenoxyethyl)aminomethyl-1,4-benzodioxane hydrochloride). Receptor proteins were filtered and washed, the filters were then counted to determine [^3H]MK-912 specifically bound. Compounds were screened at 1 μM or lower, using 1% DMSO as vehicle. Biochemical assay results are presented as the percent inhibition of specific binding in Table 4.

[3] = biological target: T3, human recombinant adrenergic α2B receptor (Homo sapiens, UniProt P18089); experiment: Adrenergic α2B radioligand binding ([3H]Rauwolscine)
T3 construct: expressed in transfected cells; host or cells: CHO-K1 cells
T3 sequence (P18089 1-450): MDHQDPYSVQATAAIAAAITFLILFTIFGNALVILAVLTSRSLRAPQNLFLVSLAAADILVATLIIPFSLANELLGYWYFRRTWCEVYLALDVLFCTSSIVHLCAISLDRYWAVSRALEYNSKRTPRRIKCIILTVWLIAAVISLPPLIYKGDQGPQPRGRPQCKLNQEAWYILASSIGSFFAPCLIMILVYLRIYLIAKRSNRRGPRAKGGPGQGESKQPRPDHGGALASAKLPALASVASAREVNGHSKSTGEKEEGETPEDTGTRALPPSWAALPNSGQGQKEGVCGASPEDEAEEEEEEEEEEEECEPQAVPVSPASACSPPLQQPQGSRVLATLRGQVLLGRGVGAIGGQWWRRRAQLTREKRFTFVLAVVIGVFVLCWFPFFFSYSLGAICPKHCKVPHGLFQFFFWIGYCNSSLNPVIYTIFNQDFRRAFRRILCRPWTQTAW
Protocol: To evaluate in radioligand binding assays the activity of compounds of the invention, human recombinant adrenergic α2B receptor expressed in Chinese hamster ovary (CHO-K1) cells (Uhlen S et al. Eur J. Pharmacol. 343(1):93, 1998) in a modified Tris-HCl buffer (50 mM Tris-HCl, pH 7.4, 12.5 mM MgCl2, 1 mM EDTA, 0.2% BSA) was used. Compounds of the invention were incubated with 2.5 nM [^3H]Rauwolscine for 60 minutes at 25° C. Non-specific binding was estimated in the presence of 10 μM Prozosin. Receptor proteins were filtered and washed, the filters were then counted to determine [^3H]Rauwolscine specifically bound. Compounds were screened at 1 μM or lower, using 1% DMSO as vehicle. Biochemical assay results are presented as the percent inhibition of specific binding in Table 4.

[4] = 1 h, read-out: Percent Inhibition of ligand binding Adrenergic (1 μM ligand conc.) α1D
[5] = compound concentration 1 μM, read-out: Percentage inhibition of ligand binding to Adrenergic α1D receptor
[6] = 1 h, read-out: Percent Inhibition of ligand binding Adrenergic (1 μM ligand conc.) α2A
[7] = compound concentration 1 μM, read-out: Percentage inhibition of ligand binding to Adrenergic α2A receptor
[8] = 1 h, read-out: Percent Inhibition of ligand binding Adrenergic (1 μM ligand conc.) α2B
[9] = compound concentration 1 μM, read-out: Percentage inhibition of ligand binding to Adrenergic α2B receptor

SMILES	inhibition at 1 µM [1, 4] [%]	inhibition at 1 µM [1, 5] [%]	inhibition at 1 µM [2, 6] [%]	inhibition at 1 µM [2, 7] [%]	inhibition at 1 µM [3, 8] [%]	inhibition at 1 µM [3, 9] [%]
Cc1ccc2c(c1)c1c(n2/C=C/c2ccccc2)CN(C)CC1 [Compound 92]	97	97	96	96	104	104
C/C(=C\n1c2c(c3cc(C)ccc31)CCN(C)C2)c1ccc(Cl)cc1 [Compound 97, 9-(2-(4-chlorophenyl)prop-1-enyl)-2,6-dimethyl-2,3,4,9-tetrahydro-1H-pyrido[3,4-b]indole]	66		91		96	
C/C(=C\n1c2c(c3cc(Cl)ccc31)CCN(C)C2)c1ccc(Cl)cc1 [Compound 98, 6-chloro-9-(2-(4-chlorophenyl)prop-1-enyl)-2-methyl-2,3,4,9-tetrahydro-1H-pyrido[3,4-b]indole]	57		74		87	
C/C(=C\n1c2c(c3cc(Cl)ccc31)CCN(C)C2C)c1ccc(Cl)cc1 (stereo not drawn) [Compound 99, 6-chloro-9-(2-(4-chlorophenyl)prop-1-enyl)-1,2-dimethyl-2,3,4,9-tetrahydro-1H-pyrido[3,4-b]indole]	20		59		77	
CCC1c2c(c3cc(Cl)ccc3n2/C=C(\C)c2ccc(Cl)cc2)CCN1C (stereo not drawn) [Compound 100, 6-chloro-9-(2-(4-chlorophenyl)prop-1-enyl)-1-ethyl-2-methyl-2,3,4,9-tetrahydro-1H-pyrido[3,4-b]indole]	8		56		53	
C#CCn1c2c(c3cc(Cl)ccc31)CCN(C)C2 [Compound 125, 6-chloro-2,3,4,9-tetrahydro-2-methyl-9-(prop-2-yn1)-1H-pyrido[3,4-b]indole]	93		89		67	
CC1c2c(c3cc(Cl)ccc3n2C#Cc2ccc(F)cc2)CCN1C (stereo not drawn) [Compound 128]	25		81		94	
CCC1c2c(c3cc(Cl)ccc3n2C#Cc2ccc(F)cc2)CCN1C (stereo not drawn) [Compound 129]	10		75		81	
CC1c2c(c3cc(Cl)ccc3n2C#Cc2ccc(Cl)cc2)CCN1C (stereo not drawn) [Compound 132, 6-chloro-9-((4-chlorophenyl)ethynyl)-1,2-dimethyl-2,3,4,9-tetrahydro-1H-pyrido[3,4-b]indole]	-8		13		84	
CCC1c2c(c3cc(C)ccc3n2C(=O)Cc2ccc(F)cc2)CCN1C (stereo not drawn) [Compound 159]	25		71		78	
CCC1c2c(c3cc(C)ccc3n2/C=C(\C)c2ccc(Cl)cc2)CCN1C (stereo not drawn) [Compound 160, 9-(2-(4-chlorophenyl)prop-1-enyl)-1-ethyl-2,6-dimethyl-2,3,4,9-tetrahydro-1H-pyrido[3,4-b]indole]	25		51		75	
C/C(=C\n1c2c(c3cc(C)ccc31)CCN(C)C2C)c1ccc(Cl)cc1 (stereo not drawn) [Compound 161, 9-(2-(4-chlorophenyl)prop-1-enyl)-1,2,6-trimethyl-2,3,4,9-tetrahydro-1H-pyrido[3,4-b]indole]	32		52		92	
CCC1c2c(c3cc(C)ccc3n2C#Cc2ccc(Cl)cc2)CCN1C (stereo not drawn) [Compound 162, 9-((4-chlorophenyl)ethynyl)-1-ethyl-2,6-dimethyl-2,3,4,9-tetrahydro-1H-pyrido[3,4-b]indole]	19		76		85	
Cc1ccc2c(c1)c1c(n2C(=O)Cc2ccc(Cl)cc2)C(c2ccccc2)N(C)CC1 (stereo not drawn) [Compound 163]	78		96		37	
C/C(=C\n1c2c(c3cc(C)ccc31)CCN(C)C2c1ccccc1)c1ccc(Cl)cc1 (stereo not drawn) [Compound 164, 9-(2-(4-chlorophenyl)prop-1-enyl)-2,6-dimethyl-1-phenyl-2,3,4,9-tetrahydro-1H-pyrido[3,4-b]indole]	10		58		15	
C/C(=C/n1c2c(c3cc(C)ccc31)CCN(C)C2C)c1ccccc1F (stereo not drawn) [Compound 165]	26		86		91	
C/C(=C\n1c2c(c3cc(C)ccc31)CCN(C)C2C)c1ccccc1F (stereo not drawn) [Compound 166]	69	69	95	95	106	106
C/C(=C/n1c2c(c3cc(Cl)ccc31)CCN(C)C2C)c1ccccc1F (stereo not drawn) [Compound 167]	36		92		94	
C/C(=C\n1c2c(c3cc(Cl)ccc31)CCN(C)C2C)c1ccccc1F (stereo not drawn) [Compound 168]	38		74		82	
